# pIC50: −log10 of the molar value. Read-outs that look alike come from different tables or passages of the source. Residues, ends and D or L forms follow the SMILES beside them.
# Test system: Myc-Max transcriptional activity
# Test: Cignal c-Myc luciferase reporter assay in LNCaP cells
# Format: cell-based
# Settings: for inhibition at 25 µM / pIC50 / inhibition at 5 µM / inhibition at 10 µM / inhibition at 12.5 µM: Homo sapiens, LNCaP; for pIC50: assay not named, read-out: IC50
# Experimental: Cell transfection was performed using TransIT-2020™ transfection reagents according to the manufacturer's instructions (Mirus™). LNCaP cells were plated at 10000 cells per well and treated for 1 day with the indicated concentration of compound. Myc reporter activity was measured using the Cignal Myc Reporter Assay Kit™ from Qiagen™ (#336841) according to the manufacturer's instructions. For the UBE2C reporter assay, 22rv1 cells were plated at 10000 cells per well in 96-well plates in RPMI media supplemented with 5% charcoal-stripped serum (CSS) and treated for 1 day with 1 μM, 10 μM and 25 μM of compound.
# Compounds were subjected to experimental evaluation using the commercially available transcriptional assay Cignal c-Myc luciferase reporter assay in LNCaP cells. […] A transiently transfected Myc-driven luciferase reporter allowed the monitoring of Myc-regulated signal in LNCaP upon treatment with the in silico identified compounds.
# [1] = 24 h, 25 μM, LNCaP cells, TABLE 1, read-out: Myc-Max transcriptional activity % inhibition (25 μM)
# [2] = TABLE 2, values match Myc-Max transcriptional activity
# [3] = 25 μM, TABLE 5, read-out: % Inhibition 25 μM
# [4] = 25 μM, TABLE 3, read-out: % Inhibition 25 μM
compound,measurement,setting,value
O=C1/C(=C/c2cccs2)SC(=S)N1c1cccc(O)c1 [VPC-70005],inhibition at 25 µM,"25 μM, TABLE 4, read-out: % Inhibition (25 μM)",65%
same,inhibition at 25 µM,[1],65%
same,pIC50,[2],< 4.60
CCOCCOc1nc(-c2cccc(F)c2)n(-c2ccc(NC[C@H](O)COC)cc2)n1 [VPC-70379],inhibition at 25 µM,[3],52%
CS(=O)(O)=Nc1cccc(NC(=S)NCc2cccc(C(F)(F)F)c2)c1 [VPC-70487],inhibition at 5 µM,"5 μM, TABLE 3",34%
same,inhibition at 10 µM,TABLE 3,42%
same,inhibition at 25 µM,[4],79%
O=C(NCCc1c[nH]c2ccccc12)C(=O)Nc1ccc(F)cc1 [VPC-70209],inhibition at 25 µM,[3],52%
O=C(N[C@H](CO)Cc1ccccc1)c1cc(-n2cnnc2)ccc1Cl [VPC-70395],inhibition at 25 µM,[3],56%
same,pIC50,[2],< 4.60
Fc1ccccc1CNC(=S)Nc1cccc(C(F)(F)F)c1 [VPC-70465],% Inhibition 10 μM,TABLE 3,95%
same,inhibition at 5 µM,"5 μM, TABLE 3",51%
same,inhibition at 25 µM,[4],92%
same,pIC50,[2],5.00
C[C@@H]1CCNC(=O)[C@H]1NC(=O)NCCCc1cccc(Cl)c1 [VPC-70249],inhibition at 25 µM,[3],65%
COc1ccccc1CNC(=O)c1ccc(N=S(=O)(O)c2ccc([C@@H](C)O)cc2)cc1 [VPC-70341],inhibition at 25 µM,[3],50%
CS(=O)(=O)Nc1cccc(C2=NN(C(=O)CCC(=O)O)[C@H](c3ccccc3O)C2)c1 [VPC-70391],inhibition at 25 µM,[3],54%
O=C(CN1C(=O)NC2(CCCC2)C1=O)Nc1cccc(C(F)(F)F)c1 [VPC-70066],inhibition at 25 µM,[3],65%
same,inhibition at 25 µM,[1],65%
Cc1ccccc1C(=O)N[C@H](CC(C)C)C(=O)N1CCN(S(=O)(=O)c2nc[nH]n2)CC1 [VPC-70356],inhibition at 25 µM,[3],53%
O=C(CCc1csc(NC(=O)c2ccc(F)cc2)n1)NCCc1ccccc1 [VPC-70131],inhibition at 25 µM,[3],50%
Cc1cc2c(cc1S(=O)(=O)N1CCN(C(=O)CCC3CCCC3)CC1)OCC(=O)N2 [VPC-70380],inhibition at 25 µM,[3],68%
N#Cc1ccc(NNC(=O)c2ccc(C(F)(F)F)cc2)c(C(F)(F)F)c1 [VPC-70551],inhibition at 10 µM,TABLE 6,91%
same,pIC50,TABLE 6 footnote,5.40
O=C(CNC(=O)NCc1ccc(F)cc1)NCc1ccc(OC(F)(F)F)cc1 [VPC-70222],inhibition at 25 µM,[3],68%
S=C(NCc1cccnc1)Nc1cc(Cl)cc(Cl)c1 [VPC-70496],inhibition at 5 µM,"5 μM, TABLE 3",22%
same,inhibition at 10 µM,TABLE 3,95%
same,inhibition at 25 µM,[4],96%
Cc1cccc(CSc2nc(O)c3c(n2)NC(=O)C[C@H]3C(=O)Nc2cccc(F)c2)c1 [VPC-70384],inhibition at 25 µM,[3],53%
FC(F)(F)c1cccc(NC(=S)Nc2ccc(Cl)c(C(F)(F)F)c2)c1 [VPC-70514],inhibition at 5 µM,"5 μM, TABLE 3",109%
same,inhibition at 10 µM,TABLE 3,110%
same,inhibition at 25 µM,[4],102%
CC[C@@H](NC(=S)Nc1cccc(C)c1)c1ccccc1 [VPC-70473],inhibition at 25 µM,[4],77%
O=C(NCCNc1ncccn1)NC[C@@H](O)c1cccc(Cl)c1 [VPC-70263],inhibition at 25 µM,[3],32%
Cc1c(CC(=O)NCC[C@@H](c2ccc(Cl)cc2)C(C)C)c(=O)oc2c(O)c(O)ccc12 [VPC-70393],inhibition at 25 µM,[4],96%
NS(=O)(=O)c1ccc(NC(=O)[C@H]2CC=CC[C@H]2C(=O)O)cc1 [VPC-70394],inhibition at 25 µM,[3],54%
C[C@H](OC(=O)[C@@H]1CCCN1C(=O)C12CC3CC(CC(C3)C1)C2)C(=O)c1c[nH]c2ccccc12 [VPC-70360],inhibition at 25 µM,[3],64%
Fc1ccccc1CNC(=S)Nc1cccc(C(F)(F)F)c1 [VPC-70483],% Inhibition 5 μM,"5 μM, TABLE 3",31%
same,% Inhibition 10 μM,TABLE 3,38%
same,% Inhibition 25 μM,"25 μM, TABLE 3",79%
Fc1ccc(NC(=S)NCc2ccccc2)cc1C(F)(F)F [VPC-70532],inhibition at 12.5 µM,TABLE 3,101%
Cc1ccc(Nc2ccccc2N=S(=O)(O)c2ccc(C(=O)O)cc2)cc1 [VPC-70163],inhibition at 25 µM,[3],39%
CC(C)(O)c1ccc(CNC(=S)NCc2cccc(C(F)(F)F)c2)cc1 [VPC-70561],inhibition at 12.5 µM,TABLE 3,95%
CS(=O)(=O)Nc1ccccc1C(=O)OCc1cc(=O)oc2cc(O)ccc12 [VPC-70027],inhibition at 25 µM,[3],53%
same,inhibition at 25 µM,[1],53%
Cc1ccsc1CCNC(=O)CCS(=O)(=O)c1cc2c(cc1Cl)NC(=O)CO2 [VPC-70377],inhibition at 25 µM,[3],52%
CCCc1cc(=O)oc2cc(C)cc(OCC(=O)N[C@H](C(=O)O)C(C)C)c12 [VPC-70405],inhibition at 25 µM,[3],54%
C[C@@H](NC(=O)OCc1ccccc1)C(=O)N[C@H](CCC(N)=O)C(=O)OCc1ccc([N+](=O)[O-])cc1 [VPC-70386] (HELM PEPTIDE1{[O=C(OCc1ccccc1)[*:2]].[dA].[dQ].[O=[N+]([O-])c1ccc(CO[*:1])cc1]}$$$$V2.0),inhibition at 25 µM,[3],55%
C[C@H]1CC[C@H](C(N)=O)CN1C(=O)c1cccc(S(=O)(O)=Nc2cccc(Cl)c2)c1 [VPC-70366],inhibition at 25 µM,[3],60%
O=C(CCN1C(=O)S/C(=C\c2ccccc2)C1=O)NCCc1c[nH]c2ccccc12 [VPC-70388],inhibition at 25 µM,[4],77%
same,pIC50,[2],4.70
COc1cccc(NC(=O)c2ccccc2N(C)C(=O)CCC(=O)NCc2ccccc2)c1 [VPC-70340],inhibition at 25 µM,[3],49%
COc1ccc2[nH]cc(CCNC(=O)CCc3nc(-c4ccccc4)no3)c2c1 [VPC-70277],inhibition at 25 µM,[4],95%
same,pIC50,[2],< 4.60
C[C@@H]1CN(Cc2ccc(CNC(=S)Nc3cccc(C(F)(F)F)c3)cc2)C[C@@H](C)O1 [VPC-70506],inhibition at 5 µM,"5 μM, TABLE 3",73%
same,inhibition at 10 µM,TABLE 3,66%
same,inhibition at 25 µM,[4],89%
C[C@@H]1CCCC[C@@H]1NC(=O)NCCCn1ccc2ccccc21 [VPC-70255],inhibition at 25 µM,[3],40%
FC(F)(F)c1cc(NC(=S)NC[C@H]2CCCO2)cc(C(F)(F)F)c1 [VPC-70437],inhibition at 5 µM,"5 μM, TABLE 3",24%
same,inhibition at 10 µM,TABLE 3,105%
same,inhibition at 25 µM,[4],87%
CS(=O)(=O)NCCc1ccc(C(=O)NC[C@H](c2cccs2)c2c[nH]c3ccccc23)cc1 [VPC-70361],inhibition at 25 µM,[3],61%
Cc1c(Cl)cccc1NC(=S)NCc1ccc(F)cc1 [VPC-70468],inhibition at 5 µM,"5 μM, TABLE 3",9%
same,inhibition at 10 µM,TABLE 3,30%
same,inhibition at 25 µM,[4],74%
COC(=O)c1cc(NC(=S)NCc2ccccc2)cc(Cl)c1F [VPC-70501],inhibition at 5 µM,"5 μM, TABLE 3",34%
same,inhibition at 10 µM,TABLE 3,37%
same,inhibition at 25 µM,[4],90%
Cc1ccc(C(=O)NCC(=O)NCC(=O)Nc2ccc(F)c(F)c2F)cc1C [VPC-70236],inhibition at 25 µM,[3],32%
CC(=O)N1c2ccc(S(=O)(O)=Nc3ccc(C(=O)NCC(=O)O)cc3)cc2C[C@@H]1C [VPC-70343],inhibition at 25 µM,[3],54%
O=C(CCc1c[nH]c2ccccc12)NCc1noc(-c2ccccc2)n1 [VPC-70240],inhibition at 25 µM,[3],48%
CC[C@@H]1Oc2cc(S(=O)(=O)N(C)CC(=O)N(C)Cc3ccccc3)c(C)cc2NC1=O [VPC-70381],inhibition at 25 µM,[4],74%
same,pIC50,[2],4.70
S=C(NCc1ccc(Cl)nc1)Nc1cccc(Cl)c1 [VPC-70524],inhibition at 5 µM,"5 μM, TABLE 3",22%
same,inhibition at 10 µM,TABLE 3,4%
same,inhibition at 25 µM,[4],102%
Cc1cc(NC(=S)NCc2ccon2)cc(C(F)(F)F)c1 [VPC-70564],inhibition at 12.5 µM,TABLE 3,73%
Cc1c(NC(=O)[C@H](C)OC(=O)c2cccc(O)c2)c(=O)n(-c2ccccc2)n1C [VPC-70216],inhibition at 25 µM,[3],40%
NC(=O)NCc1ccc(NC(=S)NCc2ccccc2)cc1 [VPC-70531],inhibition at 5 µM,"5 μM, TABLE 3",0%
same,inhibition at 10 µM,TABLE 3,27%
same,inhibition at 12.5 µM,TABLE 3,47%
same,inhibition at 25 µM,[4],81%
Cc1ccccc1OC[C@@H](O)C(=O)NCC1(O)C2CC3CC(C2)CC1C3 (stereo partly shown) [VPC-70283],inhibition at 25 µM,[3],45%
O=C(NCc1ccccc1Cl)Nc1ccc(Cl)c(Cl)c1 [VPC-70466],inhibition at 5 µM,"5 μM, TABLE 3",1%
same,inhibition at 10 µM,TABLE 3,48%
same,inhibition at 25 µM,[4],86%
O=C(CCN1C(=O)S/C(=C/C=C/c2ccccc2)C1=O)NCCc1c[nH]c2ccccc12 [VPC-70387],inhibition at 25 µM,[4],82%
C[C@@H](CCc1ccc(O)cc1)NC(=O)N[C@H]1CCOC2(CCCC2)C1 [VPC-70261],inhibition at 25 µM,[3],35%
C[C@@H](NC(=O)OCc1ccccc1)C(=O)NCC(=O)Nc1ccc(F)c(F)c1 [VPC-70211],inhibition at 25 µM,[3],47%
Cc1ccc(C(=O)N(C)c2ccc(OCC(=O)NCc3ccc(C(=O)O)cc3)cc2)cc1 [VPC-70358],inhibition at 25 µM,[3],48%
O=C1COc2ccc(S(=O)(=O)N3CCC(C(=O)NC4CCCCCC4)CC3)cc2N1 [VPC-70376],inhibition at 25 µM,[3],55%
O=C(NCCc1ccccc1)C(=O)Nc1cc(C(F)(F)F)cc(C(F)(F)F)c1 [VPC-70527],inhibition at 5 µM,"5 μM, TABLE 3",38%
same,inhibition at 10 µM,TABLE 3,43%
same,inhibition at 25 µM,[4],92%
O=C(CCNC(=O)c1cccc(C(F)(F)F)c1)NCc1ccccc1 [VPC-70554],inhibition at 12.5 µM,TABLE 3,71%
O=C(NCCOc1cccc(Cl)c1)NCC[C@H](O)C(F)(F)F [VPC-70266],inhibition at 25 µM,[3],38%
O=C(CSc1nc2ccccc2c(=O)n1CCCO)NC(=O)Nc1ccccc1F [VPC-70355],inhibition at 25 µM,[3],51%
Cc1c(Cl)cc(NC(=S)NCc2ccccc2)cc1Cl [VPC-70530],inhibition at 12.5 µM,TABLE 3,94%
NC(=O)CC[C@H](NC(=O)C1(c2ccccc2)CCN(C(=O)[C@@H]2CCCN2)CC1)C(=O)O [VPC-70318],inhibition at 25 µM,[3],54%
O=C(CNC(=O)C1CCCC1)NC[C@@H](O)COc1cccc2ccccc12 [VPC-70252],inhibition at 25 µM,[3],45%
NS(=O)(=O)c1cc(F)cc(NC(=S)NCc2ccccc2)c1 [VPC-70525],inhibition at 5 µM,"5 μM, TABLE 3",40%
same,inhibition at 10 µM,TABLE 3,35%
same,inhibition at 25 µM,[4],102%
